Values quoted from earlier work, collected in patent publication US20260263394A1, “MEDICAL PATCH […] […] AGENT” (LTS LOHMANN THERAPIE-SYSTEME AG, priority 2023, published 2026).

What was measured:
TRPV1 = TRPV1 (Homo sapiens, UniProt Q8NER1); settings: relative to capsaicin
[1] = sub-microgram (less than 1/1,000,000th of a gram) quantities, oral

Chain of TRPV1 (Q8NER1 whole entry, species assumed): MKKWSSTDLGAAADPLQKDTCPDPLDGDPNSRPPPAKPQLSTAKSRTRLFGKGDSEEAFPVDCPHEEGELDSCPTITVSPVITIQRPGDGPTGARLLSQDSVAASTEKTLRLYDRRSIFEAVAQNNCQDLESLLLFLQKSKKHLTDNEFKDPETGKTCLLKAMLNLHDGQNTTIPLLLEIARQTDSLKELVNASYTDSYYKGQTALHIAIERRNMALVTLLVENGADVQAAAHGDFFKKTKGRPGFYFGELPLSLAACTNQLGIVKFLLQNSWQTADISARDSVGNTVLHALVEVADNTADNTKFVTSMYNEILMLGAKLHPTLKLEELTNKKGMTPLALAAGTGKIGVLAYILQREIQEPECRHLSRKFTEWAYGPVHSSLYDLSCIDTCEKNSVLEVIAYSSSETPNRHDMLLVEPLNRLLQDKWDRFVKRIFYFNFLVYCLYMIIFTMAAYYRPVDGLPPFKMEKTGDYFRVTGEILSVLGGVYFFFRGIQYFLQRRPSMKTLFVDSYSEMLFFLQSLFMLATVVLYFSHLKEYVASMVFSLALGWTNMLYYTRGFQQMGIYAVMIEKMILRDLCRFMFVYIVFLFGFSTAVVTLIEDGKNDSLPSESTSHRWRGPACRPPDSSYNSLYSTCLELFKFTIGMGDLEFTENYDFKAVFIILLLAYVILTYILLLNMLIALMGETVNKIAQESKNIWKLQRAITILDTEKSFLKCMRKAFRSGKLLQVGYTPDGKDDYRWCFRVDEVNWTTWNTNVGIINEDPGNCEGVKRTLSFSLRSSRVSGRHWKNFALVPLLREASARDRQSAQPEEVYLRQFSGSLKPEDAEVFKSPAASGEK

SMILES: C=C(C)[C@]12C[C@@H](C)[C@@]34O[C@@](Cc5ccccc5)(O[C@@H]1[C@@H]3C=C(COC(=O)Cc1ccc(O)c(OC)c1)C[C@]1(O)C(=O)C(C)=C[C@@H]41)O2 [Resiniferatoxin, [(1R,2R,6R,10S,11R,13R, 15R, 17R)-13-benzyl-6-hydroxy-4,17-dimethyl-5-oxo-15-(prop-1-en-2-yl)-12,14,18-trioxapentacyclo [11.4.1.0^1,10.0^2,6.0^11,15]octadeca-3,8-dien-8-yl]methyl 2-(4-hydroxy-3-methoxyphenyl)acetate]
- times higher binding affinity for TRPV1 than capsaicin (TRPV1): about 500 times
- effect when ingested orally [1]: severe burning pain
